# Laboratory results as given in patent US6339075B1, “Use of dextran and other polysaccharides to improve mucus clearance” (The University of British Columbia, priority 1997, dated 2002).
# Test system: healthy mongrel dogs
# Test: Arginine aerosol with or without dextran in anaesthetized dogs: PD, TMV, mucus rigidity
# Format: in vivo, dog
# Method: Arginine/arg. HCl was prepared as described by Solomons (Pediatrics 1971;47:384), making a stock solution of 290 mOsm, pH 7.4. Two dilutions were prepared, 97 and 29 mOsm, the balance being Ringers. The solutions were delivered by Pari jet nebulizer to 8 healthy mongrel dogs anaesthetized with pentobarbital and intubated. After 30 min. Ringer aerosol, tracheal mucus velocity (TMV by charcoal particle transport) and potential difference (PD by agar bridge) were measured under bronchoscopic control, and mucus for viscoelasticity analysis (magnetic rheometer) was collected on the endotracheal tube. On one occasion, increasing arginine conc. were aerosolized hourly, following Ringer control. On a second occasion, the same arginine solutions were used, but with 65 mg/ml low m. w. dextran (Polydex, lot #2764) added.
structure (smiles),measurement,setting,value
"N=C(N)NCCC[C@H](N)C(=O)O [arginine, L-arginine]",TMV,"arginine aerosol with or without dextran, increased nonsignificantly from 11.9±2.2 (Ringer)",14.7±2.9 mm/min
same,mucus rigidity (log G*) decreased,arginine aerosol without dextran,not
same,lumen-negative PD,"increasing arginine aerosol, with or without added dextran 65 mg/ml, Ringer −14.3±1.4 mV",−20.1±3.6 mV
